In brackets after ≈: the same amount, converted by molar mass. One block for each compound: values may come before it. Residues, ends and D or L forms follow the SMILES beside them. *: point of attachment. Cbz = O=C(OCc1ccccc1)*; CHN2 = [N-]=[N+]=C*
Assays:
[1] = target: Matrilysin (Homo sapiens, UniProt P09237); assay: Inhibition of matrix metalloprotease-7 (MMP-7).
[2] = target: Stromelysin-1 (Homo sapiens, UniProt P08254)
[3] = target: T1, Interstitial collagenase (Homo sapiens, UniProt P03956)
T1 sequence (P03956 whole entry): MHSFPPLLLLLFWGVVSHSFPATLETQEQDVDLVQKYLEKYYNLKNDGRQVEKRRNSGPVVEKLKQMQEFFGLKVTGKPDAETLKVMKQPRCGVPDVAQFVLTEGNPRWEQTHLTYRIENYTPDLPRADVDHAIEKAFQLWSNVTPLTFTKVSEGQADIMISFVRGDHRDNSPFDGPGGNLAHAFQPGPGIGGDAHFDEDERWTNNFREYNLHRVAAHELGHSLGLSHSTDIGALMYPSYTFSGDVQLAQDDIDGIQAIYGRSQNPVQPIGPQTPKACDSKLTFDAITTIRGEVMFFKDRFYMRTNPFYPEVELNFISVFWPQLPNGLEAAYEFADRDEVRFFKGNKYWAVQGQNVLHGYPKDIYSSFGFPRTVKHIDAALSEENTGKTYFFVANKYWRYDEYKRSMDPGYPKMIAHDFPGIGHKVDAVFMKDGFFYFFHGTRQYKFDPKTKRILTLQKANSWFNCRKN

[4] = Oral bioavailability in dog; type: ADME, organism-based, Canis lupus familiaris; details: in vivo
[5] = target: T2, Caspase-1 (Homo sapiens, UniProt P29466)
T2 sequence (P29466 whole entry): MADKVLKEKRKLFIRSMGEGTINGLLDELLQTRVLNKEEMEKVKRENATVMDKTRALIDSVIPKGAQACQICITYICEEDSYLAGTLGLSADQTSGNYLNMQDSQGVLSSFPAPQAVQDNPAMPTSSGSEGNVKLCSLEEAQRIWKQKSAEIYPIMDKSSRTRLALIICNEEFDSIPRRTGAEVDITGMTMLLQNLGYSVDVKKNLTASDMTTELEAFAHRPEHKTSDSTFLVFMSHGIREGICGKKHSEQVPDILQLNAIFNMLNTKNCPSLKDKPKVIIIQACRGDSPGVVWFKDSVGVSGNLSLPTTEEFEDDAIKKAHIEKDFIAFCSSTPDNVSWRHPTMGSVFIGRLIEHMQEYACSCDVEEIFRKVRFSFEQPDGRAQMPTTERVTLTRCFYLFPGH

[6] = target: Plasminogen (Rattus norvegicus, UniProt Q01177); assay: Inhibitory concentration against Plasmin
[7] = target: T3, Serine protease 1 (Homo sapiens, UniProt P07477); assay: Inhibitory concentration against Trypsin
[8] = Inhibitory concentration against Chymotrypsinogen
[9] = Inhibitory concentration against Elastase
[10] = target: T4, Angiotensin-converting enzyme (Homo sapiens, UniProt P12821)
[11] = target: T5, Neprilysin (Rattus norvegicus, UniProt P07861)
T5 sequence (P07861 whole entry): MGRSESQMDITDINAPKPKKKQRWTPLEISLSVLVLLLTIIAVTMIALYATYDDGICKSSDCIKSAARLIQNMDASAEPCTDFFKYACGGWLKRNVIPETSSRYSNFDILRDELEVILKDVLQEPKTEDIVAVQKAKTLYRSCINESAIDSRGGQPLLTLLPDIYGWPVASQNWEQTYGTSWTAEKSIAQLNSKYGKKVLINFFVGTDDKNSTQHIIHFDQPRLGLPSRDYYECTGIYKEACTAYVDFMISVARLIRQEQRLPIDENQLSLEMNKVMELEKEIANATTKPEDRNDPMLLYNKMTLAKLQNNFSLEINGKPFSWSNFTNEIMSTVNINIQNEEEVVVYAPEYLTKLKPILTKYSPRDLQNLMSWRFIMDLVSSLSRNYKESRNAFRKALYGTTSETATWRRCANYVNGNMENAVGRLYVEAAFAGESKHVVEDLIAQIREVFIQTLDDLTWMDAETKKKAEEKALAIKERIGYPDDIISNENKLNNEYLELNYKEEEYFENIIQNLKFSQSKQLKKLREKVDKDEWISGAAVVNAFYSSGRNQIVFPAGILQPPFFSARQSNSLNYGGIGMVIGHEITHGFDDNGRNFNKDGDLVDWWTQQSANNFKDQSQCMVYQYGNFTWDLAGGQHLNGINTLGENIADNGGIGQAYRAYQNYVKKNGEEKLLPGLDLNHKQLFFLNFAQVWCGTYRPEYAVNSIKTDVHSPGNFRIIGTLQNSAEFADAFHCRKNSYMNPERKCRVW

[12] = target: 72 kDa type IV collagenase (Homo sapiens, UniProt P08253)
[13] = target: T4, Angiotensin-converting enzyme; assay: oral activity against angiotensin -converting enzyme ( ACE) and neutral endopeptidase in mouse.
[14] = target: Tryptase (Homo sapiens, UniProt Q9BZJ3+Q15661+Q9NRR2); assay: Binding affinity against Tryptase.; type: protein assay
[15] = target: T3, Serine protease 1
[16] = target: Procathepsin L (Homo sapiens, UniProt P07711); assay: Inhibitory activity against cathepsin L, lysosomal cysteine protease
Chain of Procathepsin L (P07711 whole entry): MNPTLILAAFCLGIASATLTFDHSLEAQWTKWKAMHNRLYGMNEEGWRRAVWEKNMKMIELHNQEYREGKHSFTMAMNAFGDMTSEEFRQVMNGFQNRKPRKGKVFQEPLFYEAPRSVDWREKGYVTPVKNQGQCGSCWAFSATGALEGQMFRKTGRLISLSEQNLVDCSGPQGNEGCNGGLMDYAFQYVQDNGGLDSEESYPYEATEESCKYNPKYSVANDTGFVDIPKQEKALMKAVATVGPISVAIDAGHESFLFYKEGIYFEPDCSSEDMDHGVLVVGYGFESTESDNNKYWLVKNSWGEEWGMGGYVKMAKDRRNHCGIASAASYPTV

T3 sequence (P07477 whole entry): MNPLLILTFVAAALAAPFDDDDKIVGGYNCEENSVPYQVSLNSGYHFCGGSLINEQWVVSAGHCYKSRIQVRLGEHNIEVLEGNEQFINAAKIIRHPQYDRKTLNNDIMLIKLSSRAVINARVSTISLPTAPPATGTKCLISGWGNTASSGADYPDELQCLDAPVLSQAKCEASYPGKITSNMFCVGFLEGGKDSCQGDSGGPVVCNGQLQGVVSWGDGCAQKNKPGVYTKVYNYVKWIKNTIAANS
T4 sequence (P12821 whole entry): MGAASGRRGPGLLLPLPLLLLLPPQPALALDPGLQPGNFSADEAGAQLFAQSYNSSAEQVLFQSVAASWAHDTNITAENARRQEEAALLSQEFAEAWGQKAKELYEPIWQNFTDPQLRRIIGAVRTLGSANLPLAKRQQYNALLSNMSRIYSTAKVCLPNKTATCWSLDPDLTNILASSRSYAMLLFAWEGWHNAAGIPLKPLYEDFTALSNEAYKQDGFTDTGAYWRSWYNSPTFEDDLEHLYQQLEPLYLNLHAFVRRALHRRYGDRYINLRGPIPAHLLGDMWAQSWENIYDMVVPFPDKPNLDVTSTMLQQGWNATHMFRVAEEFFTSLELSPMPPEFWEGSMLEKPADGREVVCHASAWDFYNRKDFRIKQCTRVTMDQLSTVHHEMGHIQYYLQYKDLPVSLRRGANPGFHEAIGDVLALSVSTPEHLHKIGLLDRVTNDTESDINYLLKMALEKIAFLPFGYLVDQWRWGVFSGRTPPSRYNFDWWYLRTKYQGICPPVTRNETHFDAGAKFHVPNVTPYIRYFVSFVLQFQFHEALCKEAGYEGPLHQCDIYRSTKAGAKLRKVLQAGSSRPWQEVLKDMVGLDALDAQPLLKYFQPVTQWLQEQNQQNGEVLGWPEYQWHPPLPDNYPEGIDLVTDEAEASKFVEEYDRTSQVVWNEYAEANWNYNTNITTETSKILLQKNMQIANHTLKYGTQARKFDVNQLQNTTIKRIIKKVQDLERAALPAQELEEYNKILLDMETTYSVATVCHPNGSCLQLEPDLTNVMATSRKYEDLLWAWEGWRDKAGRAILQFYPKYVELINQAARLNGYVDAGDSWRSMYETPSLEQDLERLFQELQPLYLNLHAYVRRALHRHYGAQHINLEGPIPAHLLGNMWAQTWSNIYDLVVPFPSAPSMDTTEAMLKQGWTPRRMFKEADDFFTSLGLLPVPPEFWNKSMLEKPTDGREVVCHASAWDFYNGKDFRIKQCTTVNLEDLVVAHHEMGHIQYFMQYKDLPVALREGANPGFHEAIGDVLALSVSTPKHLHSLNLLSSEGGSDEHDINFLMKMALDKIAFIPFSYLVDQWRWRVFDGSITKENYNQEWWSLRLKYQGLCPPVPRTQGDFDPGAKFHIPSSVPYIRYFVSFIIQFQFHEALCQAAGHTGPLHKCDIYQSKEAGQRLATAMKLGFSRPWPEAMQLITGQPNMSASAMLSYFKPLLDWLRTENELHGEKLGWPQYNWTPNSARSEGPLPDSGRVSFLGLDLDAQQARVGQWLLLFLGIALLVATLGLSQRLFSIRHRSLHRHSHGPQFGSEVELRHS
Chain of 72 kDa type IV collagenase (P08253 whole entry): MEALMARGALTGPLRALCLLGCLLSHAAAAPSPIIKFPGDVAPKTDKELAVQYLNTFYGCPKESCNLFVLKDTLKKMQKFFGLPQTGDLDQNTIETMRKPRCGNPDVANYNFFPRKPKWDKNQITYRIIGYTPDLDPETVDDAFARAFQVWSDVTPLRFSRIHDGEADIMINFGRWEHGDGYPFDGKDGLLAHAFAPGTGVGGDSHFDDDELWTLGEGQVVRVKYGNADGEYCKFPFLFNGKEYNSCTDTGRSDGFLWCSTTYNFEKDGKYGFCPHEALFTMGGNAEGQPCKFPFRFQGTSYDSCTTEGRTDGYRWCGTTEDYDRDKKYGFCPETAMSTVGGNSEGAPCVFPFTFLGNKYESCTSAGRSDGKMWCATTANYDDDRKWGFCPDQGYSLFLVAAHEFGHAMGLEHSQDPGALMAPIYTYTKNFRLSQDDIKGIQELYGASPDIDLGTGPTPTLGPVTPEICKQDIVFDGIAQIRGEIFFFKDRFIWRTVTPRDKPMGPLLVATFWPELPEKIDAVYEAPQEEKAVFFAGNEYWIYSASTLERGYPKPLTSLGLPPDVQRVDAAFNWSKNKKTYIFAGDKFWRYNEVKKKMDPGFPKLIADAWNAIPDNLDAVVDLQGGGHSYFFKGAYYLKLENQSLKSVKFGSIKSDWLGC
Chain of Stromelysin-1 (P08254 whole entry): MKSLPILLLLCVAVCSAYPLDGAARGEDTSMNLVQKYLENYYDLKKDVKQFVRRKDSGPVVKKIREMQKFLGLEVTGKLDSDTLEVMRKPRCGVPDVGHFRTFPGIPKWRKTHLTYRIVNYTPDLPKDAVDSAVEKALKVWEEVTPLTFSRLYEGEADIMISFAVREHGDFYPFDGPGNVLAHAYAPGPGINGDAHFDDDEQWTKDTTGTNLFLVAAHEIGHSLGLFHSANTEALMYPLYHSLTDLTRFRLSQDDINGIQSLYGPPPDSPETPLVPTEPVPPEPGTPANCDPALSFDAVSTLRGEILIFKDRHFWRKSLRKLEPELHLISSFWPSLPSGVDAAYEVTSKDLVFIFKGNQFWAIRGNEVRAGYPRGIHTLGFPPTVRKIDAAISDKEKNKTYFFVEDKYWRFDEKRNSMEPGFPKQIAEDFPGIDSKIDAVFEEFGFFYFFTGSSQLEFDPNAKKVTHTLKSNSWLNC
Chain of Matrilysin (P09237 whole entry): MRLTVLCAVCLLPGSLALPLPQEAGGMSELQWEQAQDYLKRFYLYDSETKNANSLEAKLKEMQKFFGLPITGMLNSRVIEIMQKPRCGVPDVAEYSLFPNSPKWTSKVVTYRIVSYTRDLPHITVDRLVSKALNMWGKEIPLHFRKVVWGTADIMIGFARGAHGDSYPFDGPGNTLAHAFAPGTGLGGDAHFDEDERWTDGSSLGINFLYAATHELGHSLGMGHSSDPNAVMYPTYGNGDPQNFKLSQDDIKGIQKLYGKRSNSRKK
Chain of Plasminogen (Q01177 97-581 limits assumed): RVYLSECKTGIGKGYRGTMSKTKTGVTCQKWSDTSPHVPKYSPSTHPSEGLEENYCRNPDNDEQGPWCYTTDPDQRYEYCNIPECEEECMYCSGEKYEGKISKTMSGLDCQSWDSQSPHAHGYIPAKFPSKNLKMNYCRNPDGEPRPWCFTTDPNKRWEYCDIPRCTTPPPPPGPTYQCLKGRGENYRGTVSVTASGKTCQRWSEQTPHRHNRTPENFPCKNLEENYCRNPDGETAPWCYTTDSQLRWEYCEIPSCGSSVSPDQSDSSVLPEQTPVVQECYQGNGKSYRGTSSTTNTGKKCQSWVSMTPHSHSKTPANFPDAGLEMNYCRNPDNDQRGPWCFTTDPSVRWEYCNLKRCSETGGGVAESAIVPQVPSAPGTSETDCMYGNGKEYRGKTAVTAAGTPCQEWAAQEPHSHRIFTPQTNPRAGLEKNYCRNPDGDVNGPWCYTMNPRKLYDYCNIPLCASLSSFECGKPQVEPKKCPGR
Chain of Plasminogen (Q01177 582-812 limits assumed): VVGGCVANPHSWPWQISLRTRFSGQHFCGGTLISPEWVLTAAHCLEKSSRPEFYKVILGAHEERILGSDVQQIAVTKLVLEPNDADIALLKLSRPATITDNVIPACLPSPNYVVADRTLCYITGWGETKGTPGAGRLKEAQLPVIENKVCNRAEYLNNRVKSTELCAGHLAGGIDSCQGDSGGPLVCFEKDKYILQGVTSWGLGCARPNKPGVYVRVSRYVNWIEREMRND

Structure (SMILES): CCC(=O)O[C@@H](O[P@](=O)(CCCCc1ccccc1)CC(=O)N1C[C@H](C2CCCCC2)C[C@H]1C(=O)O)C(C)C [FOSINOPRIL]
IC50 [10]: 1 nM

Structure (SMILES): CCOC(=O)[C@H](CCc1ccccc1)N[C@@H](C)C(=O)N1[C@H](C(=O)O)C[C@@H]2CCC[C@@H]21
IC50 [10]: 4 nM

Structure (SMILES): CC1(C)CCCC(NC(=O)[C@@H](S)Cc2ccccc2)C(=O)N1CC(=O)O (stereo partly specified)
IC50 [10]: 12 nM
IC50 [11]: 63 nM

Structure (SMILES): CNC(=O)[C@@H](Cc1c(F)c(F)c(F)c(F)c1F)NC(=O)Nc1nnc(S)s1
Ki [12]: 3000 nM

Structure (SMILES): CC(=O)SC[C@@H](Cc1ccc2c(c1)OCO2)C(=O)N[C@@H](C)C(=O)OCc1ccccc1
ED50 [13]: 0.5 mg/kg

Structure (SMILES): O=C(NC1CCC[C@H]2CCC[C@@H](C(=O)O)N2C1=O)[C@@H](S)Cc1ccccc1 (stereo partly specified)
IC50 [10]: 5 nM
IC50 [11]: 8 nM

Structure (SMILES): NCc1ccc(CNC(=O)CNC(=O)OCc2ccc(COC(=O)NCC(=O)NCc3ccc(CN)cc3)cc2)cc1
Ki [14]: 0.6 nM
Ki [15]: 84000 nM

Structure (SMILES): [N-]=[N+]=CC(=O)[C@H](Cc1ccccc1)NC(=O)[C@H](Cc1ccccc1)NC(=O)OCc1ccccc1 (Cbz-Phe-Phe-CHN2)
IC50 [16]: 50 nM

Next, values leading:

Ki [1]: 1200 nM
Ki [2]: 9.3 nM
Ki [3]: 590 nM
Structure (SMILES): O=C(NO)C1(CS(=O)(=O)c2ccc(Oc3ccc(Cl)cc3)cc2)CCOCC1 [CTS-1027]

bioavailability [4]: 90%
Structure (SMILES): NC1CCC(CNC(=O)[C@@H]2CCCN2C(=O)[C@H](N)C(C2CCCCC2)C2CCCCC2)CC1 (stereo partly specified)

IC50 [5]: 10400 nM
Structure (SMILES): CC(=O)N[C@@H](CC(=O)O)C(=O)N[C@H]1CCC[C@H]2SC[C@@H](C(=O)N[C@H]3CC(=O)OC3O)N2C1=O (stereo partly specified)

IC50 [6]: > 109000 nM
IC50 [7]: 39900 nM
IC50 [8]: 15.6 µg/mL (≈ 34 µM)
IC50 [9]: > 50 µg/mL
Structure (SMILES): CC(=O)OCCC/C(=C1/SC(=S)N(CC(=O)O)C1=O)c1ccc(Br)cc1

IC50 [10]: 1.7 nM
Structure (SMILES): CCOC(=O)[C@H](CCc1ccccc1)N[C@H]1CCc2ccccc2N(CC(=O)O)C1=O [BENAZEPRIL]

IC50 [11]: 28 nM
Structure (SMILES): COCCOCC(CC1(C(=O)N[C@H]2CC[C@@H](C(=O)O)CC2)CCCC1)C(=O)Oc1ccc2c(c1)CCC2 (stereo partly specified)

IC50 [10]: > 10000 nM
IC50 [11]: 11 nM
Structure (SMILES): O=C(O)C(CCc1ccccc1)N[C@@H](Cc1ccccc1)C(=O)NC[C@H](O)C(=O)O (stereo partly specified)

bioavailability [4]: 45%
Ki [15]: 0.46 nM
Structure (SMILES): CC1=CCN(C(=O)[C@H](Cc2ccc(C(=N)N)cc2)NS(=O)(=O)c2ccc3c(c2)CN(C)CC3)[C@@H](C(=O)O)C1

Reference: ChEMBL document CHEMBL1133572, “Protease inhibitors: current status and future prospects” (J Med Chem, 2000)
